Measured values taken from patent US6166023A, “1,5- and 3-O-substituted 1H-indazoles having anti-asthmatic, anti-allergic, anti-inflammatory, immunomodulating and neuroprotective action, process for their preparation and their use as medicaments” (Arzneimittelwerk Dresden GmbH, priority 1998, dated 2000).

Legend:
[1] = target: human cyclophilin B (Homo sapiens, UniProt P23284); experiment: Peptidylprolyl isomerase (PPIase) activity inhibition assay; type: biochemical; conditions: Cyp B, test peptide Suc-Ala-Ala-Pro-Phe-Nan
Experimental: To determine the anti-asthmatic, anti-allergic, anti-inflammatory and/or immunomodulating properties of the compounds according to the invention, in-vitro and in-vivo investigations were carried out. […] For the initial screening (10 μmol/l), the inhibition of human cyclophilin B in the PPIase test is determined.
The PPIase activity is tested according to a globally customary enzyme test: G. Fischer, H. Bang, C. Mech, Biomed. Biochim. Acta 43 1101-1111; G. Fischer, H. Bang, A. Schellenberger, Biochim. Biophys. Acta 791 (1984), 87-97; D. H. Rich et al., J. Med. Chem. 38 (1995), 4164-4170.
The compounds of the general formula I according to the invention are preincubated at 4° C. for 15 minutes together with 10 nmol of Cyp B. The enzyme reaction is started using the test peptide Suc-Ala-Ala-Pro-Phe-Nan after addition of chymotrypsin and HEPES buffer. The extinction change at 390 nm is then monitored and evaluated. The photometrically determined extinction change results from two sub-reactions: a) the rapid chymotryptic cleavage of the trans-peptide; b) the non-enzymatic cis-trans isomerization, which is catalysed by cyclophilins.

[2] = system: pulmonary eosinophil infiltration; experiment: Inhibition of late-phase eosinophilia 24 h after inhalational ovalbumin challenge in actively sensitized guinea-pigs; type: in vivo; conditions: BAL 24 h after OVA challenge
Experimental: The inhibition of pulmonary eosinophil infiltration by the substances is tested in an in-vivo test on male Dunkin-Hartley guinea-pigs (200-250 g) sensitized against ovalbumin (OVA). The sensitization is carried out by means of two intraperitoneal injections of a suspension of 20 μg of OVA together with 20 mg of aluminium hydroxide as an adjuvant in 0.5 ml of physiological saline solution per animal on two successive days. 14 days after the second injection, the animals are pretreated with mepyramine maleate (10 mg/kg i.p.) in order to protect them from anaphylactic death. 30 minutes later, the animals are exposed for 30 sec in a plastic box to an OVA aerosol (0.5 mg/ml) which is generated by a nebulizer driven by compressed air (19.6 kPa) (allergen challenge). Control animals are nebulized with physiological saline solution. 24 hours after the challenge, the animals are anaesthetized with an overdose of ethylurethane (1.5 g/kg of body weight i.p.) and a bronchoalveolar lavage (BAL) is carried out with 2×5 ml of physiological saline solution. The BAL fluid is collected, centrifuged at 300 rpm for 10 min and the cell pellet is then resuspended in 1 ml of physiological saline solution. The eosinophils are stained using the Becton-Dickinson test kit (N. 5877) for eosinophils and counted in a Neubauer chamber. 2 control groups (nebulization with physiological saline solution and nebulization with OVA solution) are additionally included in each test.
The percentage inhibition of the eosinophilia of the test group treated with substance is calculated according to the following formula:
(A-C)-(B-C)/(A-C)×100=% inhibition
The test substances are administered intraperitoneally or orally as a suspension in 10% polyethylene glycol 300 and 0.5% strength 5-hydroxyethylcellulose 2 hours before allergen challenge. The control groups are treated with the vehicle according to the administration form of the test substance. The number of animals per control and test group is 3-10.

Chain of human cyclophilin B (P23284 34-216): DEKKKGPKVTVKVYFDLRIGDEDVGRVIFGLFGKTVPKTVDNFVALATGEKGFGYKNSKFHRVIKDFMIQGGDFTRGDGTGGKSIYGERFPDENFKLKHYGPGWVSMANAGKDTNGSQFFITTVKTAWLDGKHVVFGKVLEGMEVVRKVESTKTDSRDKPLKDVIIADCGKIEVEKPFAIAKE

Row | Compound | inhibition at 10 µM [1] [%] | Eosinophil million/animal x ± s, B = group treated with substance with OVA challenge ([2]; 10 mg/kg i.p. -2 h) [million/animal] | Inhibition [%] of eosinophilia ([2]; 10 mg/kg i.p. -2 h) [%] | Eosinophil million/animal x ± s, B = group treated with substance with OVA challenge ([2]; 30 mg/kg p.o. -2 h) [million/animal] | Inhibition [%] of eosinophilia ([2]; 30 mg/kg p.o. -2 h) [%]
1 | COc1ccc(S(=O)(=O)n2nc(OCCOc3ccc(Cl)cc3)c3cc(OC)ccc32)cc1 [Example 9] | 90 | – | – | – | –
2 | COc1ccc2c(c1)c(OCc1c(Cl)cccc1Cl)nn2Cc1cccc([N+](=O)[O-])c1 [Example 84] | 90 | – | – | – | –
3 | COc1ccc2c(c1)c(OCCOc1ccc(Cl)cc1)nn2S(=O)(=O)c1ccc(Cl)cc1 [Example 7] | 70 | – | – | – | –
4 | COc1ccc2c(c1)c(OCCOc1c(F)cc(F)cc1Br)nn2S(=O)(=O)c1ccc(C)cc1 [Example 1, 3-[2-(2-Bromo-4,6-difluorophenoxy)ethoxy]-5-methoxy-1-(toluene-4-sulphonyl)-1H-indazole] | 95 | 1.23 ± 0.38 | 61 | 1.75 ± 1.86 | 65
5 | COc1ccc2c(c1)c(OCC(=O)Nc1ccc(Cl)cc1Cl)nn2S(=O)(=O)c1ccc(C)cc1 [Example 73] | 67 | – | – | – | –
6 | COc1ccc2c(c1)c(OCc1ccc(Cl)cc1[N+](=O)[O-])nn2S(=O)(=O)c1ccc(C)cc1 [Example 41] | 71 | – | – | – | –
7 | COc1ccc2c(c1)c(OCc1cc(C(C)=O)ccc1OC)nn2CCOc1ccc([N+](=O)[O-])cc1 [Example 107] | – | 1.44 ± 0.92 | 68 | – | –
8 | O=C(Nc1ccc2c(c1)c(OCCOc1ccc([N+](=O)[O-])cc1)nn2Cc1ccc(Cl)cc1Cl)Nc1cccc2ccccc12 [Example 114, 1-{1-(2,4-Dichlorobenzyl)-3-[2-(4-nitrophenoxy)ethoxy]-1H-indazol-5-yl}-3-naphthalen-1-ylurea] | 100 | 1.19 ± 0.43 | 58 | – | –
9 | O=C(Nc1ccc2c(c1)c(OCCOc1ccc([N+](=O)[O-])cc1)nn2Cc1ccc(Cl)c(Cl)c1)Nc1cccc2ccccc12 [Example 116] | 90 | – | – | – | –
10 | COc1ccc2c(c1)c(OCCOc1ccc([N+](=O)[O-])cc1)nn2Cc1ccc(F)cc1 [Example 91, 1-(4-Fluorobenzyl)-5-methoxy-3-[2-(4-nitrophenoxy)ethoxy]-1H-indazole] | – | 1.16 ± 0.65 | 71 | – | –
11 | COc1ccc2c(c1)c(OCCOc1ccc(Cl)cc1)nn2S(=O)(=O)c1ccc(F)cc1 [Example 8] | – | 1.84 ± 0.94 | 41 | – | –
12 | COc1ccc2c(c1)c(OCc1noc(-c3cccc(C(F)(F)F)c3)n1)nn2S(=O)(=O)c1ccc(C)cc1 [Example 32, 5-Methoxy-1-(toluene-4-sulphonyl)-3-[5-(3-trifluoromethylphenyl)-1,2,4-oxadiazol-3-ylmethoxy]-1H-indazole] | 70 | 0.86 ± 0.49 | 85 | – | –
13 | COc1ccc2c(c1)c(OCC(=O)Nc1ccc(F)cc1F)nn2S(=O)(=O)c1ccc(C)cc1 [Example 66, N-(2,4-Difluorophenyl)-2-[5-methoxy-1-(toluene-4-sulphonyl)-1H-indazol-3-yloxy]acetamide] | 40 | – | – | – | –
14 | COc1ccc2c(c1)c(OCCOc1c(F)cc(F)cc1Br)nn2CCOc1ccc([N+](=O)[O-])cc1 [Example 99, 3-[2-(2-Bromo-4,6-difluorophenoxy)ethoxy]-5-methoxy-1-[2-(4-nitrophenoxy)ethyl]-1H-indazole] | – | 1.35 ± 0.67 | 46 | 1.33 ± 0.23 | 33
